Measurements published in patent US20230149323A1, “INHIBITORS OF THE INTERACTION OF THE UPAR/FPRS RECEPTORS” (ORPHA BIOTECH S.R.L., priority 2020, published 2023).
“Also recorded” adds a separate entry of the source.

The molecules below were run against T1, bond of purified uPAR to the VN (Homo sapiens, UniProt Q03405) (assay: Bond of soluble biotinylated uPAR to immobilized VN (ELISA)). Conditions: FIG. 2(A): compounds at 50 µM vs DMSO vehicle (100%).
T1 construct: Soluble recombinant uPAR (suPAR; R&D System, Minneapolis, MN, USA); purchased R&D System
Format: binding
Protocol: Soluble recombinant uPAR (suPAR; R&D System, Minneapolis, MN, USA) was biotinylated and purified with the biotinylation module of the proteins ECL Amersham according to the producer’s instructions (GE Healthcare, Buckinghamshire, UK).
The (high-binding) plates with 96 wells (Corning, New York, USA) were covered with 0.5 µg/well of VN (Becton Dickinson Biosciences, Franklin Lakes, NJ, USA) diluted in PBS (0.08 M NaCl, 0.002 M KCl, 0.0115 M Na2HPO4, 0.002 M KH2PO4, pH 7.2) or bovine serum albumin (BSA), as negative control, and incubated at 4° C. for the entire night. After a washing in PBS, the residual bond sites were blocked with 200 µL of BSA at 1% in PBS, for 1 hour at ambient temperature. 25 nmol/L of biotinylated s-uPAR (diluted in PBS, 1 mg/mL of BSA), on its own or in the presence of selected compounds, were placed in the covered wells. The plates were maintained at 4° C. for 1 hour, washed with PBS containing 0.1% Tween 20 and then avidin marked with peroxidase (Amersham), diluted 1:1.500 in PBS containing 10 mg/mL of BSA. After further washings, the substrate of peroxidase o-phenylenediamine (Sigma, St. Louis, MO, USA) was added and left to react for 3 minutes. The reactions were stopped with 1 mol/L H2SO4 and the product was measured at 492 nm by using an automated plate reader (Bio-Rad, Munich, Germany).

T1 sequence (Q03405 23-305 limits assumed): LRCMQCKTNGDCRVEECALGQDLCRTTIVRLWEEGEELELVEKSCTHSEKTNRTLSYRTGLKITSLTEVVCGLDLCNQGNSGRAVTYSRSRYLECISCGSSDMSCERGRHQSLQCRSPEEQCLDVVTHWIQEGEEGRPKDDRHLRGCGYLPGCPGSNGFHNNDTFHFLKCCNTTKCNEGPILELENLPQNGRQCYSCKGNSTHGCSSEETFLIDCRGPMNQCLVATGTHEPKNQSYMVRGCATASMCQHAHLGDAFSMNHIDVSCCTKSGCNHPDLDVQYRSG

inhibitory activity against the interaction of the uPAR with the VN in vitro | SMILES
greater inhibitory activity | CCCc1cc(-c2ccc(O)c(CCC)c2)ccc1O [Compound 19, 3,3′-dipropyl[1,1′-biphenyl]-4,4′-diol]
greater inhibitory activity | CC(C)(C)c1cc(Cl)c(O)c(Cc2cc(C(C)(C)C)cc(Cl)c2O)c1 [Compound 23, 6,6′-methylenebis(4-(tert-butyl)-2-chlorophenol)]
greater inhibitory activity | Cc1cc(Cc2cc(C)cc(C(C)(C)C)c2O)c(O)c(C(C)(C)C)c1 [Compound 20, 6,6′-methylenebis(2-(tert-butyl)-4-methylphenol)]
greater inhibitory activity | Cc1ccc(C(C)(C)c2ccc(C)cc2O)c(O)c1 [Compound 3, 6,6′-(propan-2,2-diyl)bis(3-methylphenol)]

These molecules were tested on BJ cells (assay: Cell adhesion assay to VN on BJ cells). Conditions: FIG. 2(B): BJ cells treated with compounds at 50 µM vs DMSO vehicle (100%).
Format: cell-based, human
Protocol: The cell line BJ (ATCC CRL2522) was used as model of human skin fibroblasts. The cells were cultivated in Dulbecco’s Modified Eagle Medium (DMEM) containing fetal bovine serum at 10% (FBS) at 37° C. with CO2 at 5%.
The plates with 96 wells (Nunc, Roskilde, Denmark) were covered with VN (1 µg) or with 100 µl of 1% BSA deactivated with heat in PBS, as negative control, and incubated during the entire night at 4° C. The plates were then blocked 1 hour at ambient temperature with 1% BSA deactivated with heat in 1% PBS. The cells were detached with PBS containing 2 mM of EDTA and washed with DMEM lacking serum, they were counted, plated in the wells with a density of 10^5 cells/well and incubated for 1 hour at 37° C. in the presence of or in the absence of the selected compounds. The cells were then fixed with paraformaldehyde at 3% in PBS for 10 minutes and then incubated with methanol at 2% for 10 minutes. The cells were finally colored for 10 minutes with 0.5% crystal violet in 20% methanol, eluted with 0.1 mol/l of sodium citrate in 50% ethanol (pH 4.2) and the absorbance was measured at 540 nm with a spectrophotometer.

SMILES | inhibitory activity against cell adhesion to the VN
CCCc1cc(-c2ccc(O)c(CCC)c2)ccc1O [Compound 19, 3,3′-dipropyl[1,1′-biphenyl]-4,4′-diol] | greater inhibitory activity; also recorded: considerable contribution
CC(C)(C)c1cc(Cl)c(O)c(Cc2cc(C(C)(C)C)cc(Cl)c2O)c1 [Compound 23, 6,6′-methylenebis(4-(tert-butyl)-2-chlorophenol)] | greater inhibitory activity; also recorded: considerable contribution
Cc1cc(Cc2cc(C)cc(C(C)(C)C)c2O)c(O)c(C(C)(C)C)c1 [Compound 20, 6,6′-methylenebis(2-(tert-butyl)-4-methylphenol)] | greater inhibitory activity; also recorded: considerable contribution
Cc1ccc(C(C)(C)c2ccc(C)cc2O)c(O)c1 [Compound 3, 6,6′-(propan-2,2-diyl)bis(3-methylphenol)] | greater inhibitory activity
